The numbers were not newly measured in patent publication US11938224B1, “Benzonatate modified release solid tablets and capsules” (Tris Pharma, Inc., priority 2016, dated 2024), which cites them from elsewhere.

The conditions of this series: room temperature, oily liquid.

On to `CCCCNc1ccc(C(=O)OCCOCCOCCOCCOCCOCCOCCOCCOCCOC)cc1` [Benzonatate, 2-[2-[2-[2-[2-[2-[2-[2-(2-methoxyethoxy)ethoxy]ethoxy]ethoxy]ethoxy]ethoxy]ethoxy]ethoxy] ethyl-4-butylaminobenzoate], for which the solubility in water result is listed as “water soluble”.
